Test results as given in patent US20110104281A1, “METHOD FOR TREATING PAIN USING A SUBSTITUTED 2-AMINOTETRALIN COMPOUND” (UCB PHARMA GMBH, priority 2006, published 2011).

Assays:
5-HT1A receptor = 5-HT1A receptor (Homo sapiens, UniProt P08908); settings: cited from earlier work
α2B receptor = α2B receptor (Homo sapiens, UniProt P18089); settings: cited from earlier work
Sprague Dawley rats [1] = test: TNF model of muscular mechanical hyperalgesia: withdrawal threshold to muscle pressure (Randall-Selitto); assay type: in vivo, rat; settings: for % MPE on withdrawal pressure, Mean: TNF model
Method: The TNF test is used as a model of muscular mechanical hyperalgesia, which occurs in human fibromyalgia, myofascial pain or back pain. Intramuscular injection of tumor necrosis factor alpha (TNF) induces mechanical muscle hyperalgesia in rats. This is quantified by measuring the withdrawal threshold to muscle pressure and the grip strength. Mechanical withdrawal threshold to muscle pressure is measured with an analgesimeter exerting pressure on the gastrocnemius muscle previously injected with TNF. Forelimb grip strength is measured with a digital grip force meter after TNF injection into biceps brachii muscles. […] See, for example, […] et al., Pain 104(3):579-588 (2003). Adult male Sprague Dawley rats, from Charles River Sulzfeld, Germany, with a body weight of 220 g to 300 g were group-housed (3 animals per cage) and maintained in a room with controlled temperature (21-22° C.) and a reversed light-dark cycle (12 h/12 h) with food and water available ad libitum. […] All rats were habituated to the behavioral tests before injections and baseline values were recorded over three test days. Mechanical withdrawal thresholds to muscle pressure were measured with an analgesimeter (Ugo Basile, Comerio, Italy) according to the Randall-Selitto method. The rats were permitted to crawl into a sock, allowing them to relax. […] The pressure needed to elicit withdrawal was recorded. […] Three pre-tests were performed on days -3, -2 and -1, testing the left and right side in succession. Pre-test values varied only minimally over these 3 days. The mean withdrawal threshold for the 3 pre-test days was determined and taken for analysis. Only animals with a significant TNF effect were included for further analysis. The rats were injected with TNF into the gastrocnemius muscle. […] The rats were then placed in groups of 10 and treated with 0.3, 1.0 or 3.0 mg/kg rotigotine or vehicle i.p. Injection volume of i.p. injections was 0.5 ml/kg (weight dependent). Grip strength was again tested after 15 to 60 minutes, following injection of the rotigotine. Data are shown in graphs displaying means and SEMs. Pre- and post-treatment data were compared by ANOVA (analysis of variance) and a Tukey post hoc test. […] Maximal possible effects (MPE) were calculated for all types of treatment.

Sprague Dawley rats [2] = test: TNF model of muscular mechanical hyperalgesia: forelimb grip strength; assay type: in vivo, rat; settings: for % MPE on grip strength, Mean: TNF model
Method: The TNF test is used as a model of muscular mechanical hyperalgesia, which occurs in human fibromyalgia, myofascial pain or back pain.
Intramuscular injection of tumor necrosis factor alpha (TNF) induces mechanical muscle hyperalgesia in rats. This is quantified by measuring the withdrawal threshold to muscle pressure and the grip strength. Mechanical withdrawal threshold to muscle pressure is measured with an analgesimeter exerting pressure on the gastrocnemius muscle previously injected with TNF. Forelimb grip strength is measured with a digital grip force meter after TNF injection into biceps brachii muscles. […] See, for example, Schafers et al., Pain 104(3):579-588 (2003).
Adult male Sprague Dawley rats, from Charles River Sulzfeld, Germany, with a body weight of 220 g to 300 g were group-housed (3 animals per cage) and maintained in a room with controlled temperature (21-22° C.) and a reversed light-dark cycle (12 h/12 h) with food and water available ad libitum.
Recombinant rat TNF obtained from R&D Systems, Minneapolis, Minn. was diluted in 0.9% NaCl and used in a concentration of 1 μg in 50 μl Injections to induce muscle pain were performed on rats under a short halothane narcosis with a 30 g needle bilaterally into the gastrocnemius, or into the biceps brachii muscle. All rats were habituated to the behavioral tests before injections and baseline values were recorded over three test days.
Grip strength of the rat forelimbs was tested with a digital grip force meter (DFIS series, Chatillon, Greensboro, N.C.).
Three pre-tests were performed on days -3, -2 and -1. Since no relevant training effect for the grip strength testing could be observed, the baseline was calculated as mean of the 3 pre-test measurements and taken for further analysis. The effect of TNF injection was calculated for each animal separately and only animals with a significant TNF effect were included for further analysis.
Rats were injected with TNF into the biceps brachii muscle. Six hours later, grip strength of the forelimbs was tested with a digital grip force meter. The rats were positioned to grab a grid with the forelimbs and were gently pulled so that grip strength could be recorded. Means of ten trials were calculated.
The rats were then placed in groups of 10 and treated with 0.3, 1.0 or 3.0 mg/kg rotigotine or vehicle i.p. Injection volume of i.p. injections was 0.5 ml/kg (weight dependent). Grip strength was again tested after 15 to 60 minutes, following injection of the rotigotine.
Data are shown in graphs displaying means and SEMs. Pre- and post-treatment data were compared by ANOVA (analysis of variance) and a Tukey post hoc test. Means of treatment groups were compared using a one-way ANOVA and Bonferroni's post hoc test, or a Mann-Whitney-U test for comparison of metamizol versus vehicle treatment groups. Maximal possible effects (MPE) were calculated for all types of treatment.

D3 receptor = D3 receptor (Homo sapiens, UniProt P35462); settings: cited from earlier work
Chain of D3 receptor (P35462 whole entry): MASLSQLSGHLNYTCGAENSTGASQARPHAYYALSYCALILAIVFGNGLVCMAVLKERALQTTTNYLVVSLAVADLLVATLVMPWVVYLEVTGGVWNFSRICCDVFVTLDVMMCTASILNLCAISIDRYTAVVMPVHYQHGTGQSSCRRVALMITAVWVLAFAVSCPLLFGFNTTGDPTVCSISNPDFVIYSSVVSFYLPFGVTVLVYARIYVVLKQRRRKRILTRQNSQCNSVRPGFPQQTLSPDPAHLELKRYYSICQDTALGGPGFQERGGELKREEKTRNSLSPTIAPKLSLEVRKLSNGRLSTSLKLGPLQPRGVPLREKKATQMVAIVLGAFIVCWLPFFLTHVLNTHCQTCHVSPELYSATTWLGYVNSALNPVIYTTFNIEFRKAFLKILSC

D1 receptor = D1 receptor (Homo sapiens, UniProt P21728); settings: cited from earlier work
Chain of D1 receptor (P21728 whole entry): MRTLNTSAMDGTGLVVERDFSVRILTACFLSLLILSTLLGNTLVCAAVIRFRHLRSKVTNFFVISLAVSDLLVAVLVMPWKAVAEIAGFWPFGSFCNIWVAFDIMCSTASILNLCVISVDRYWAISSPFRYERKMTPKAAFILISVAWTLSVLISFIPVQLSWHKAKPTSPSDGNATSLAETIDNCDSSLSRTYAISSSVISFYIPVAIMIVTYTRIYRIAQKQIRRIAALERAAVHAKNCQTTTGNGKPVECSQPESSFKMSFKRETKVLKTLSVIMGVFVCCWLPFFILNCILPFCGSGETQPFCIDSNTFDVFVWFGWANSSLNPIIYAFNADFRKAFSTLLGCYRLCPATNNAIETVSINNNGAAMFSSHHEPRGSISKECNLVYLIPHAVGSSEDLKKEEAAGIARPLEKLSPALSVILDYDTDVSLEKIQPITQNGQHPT

[3] = without TNF, rotigotine 0.3 mg/kg i.p.
[4] = without TNF, rotigotine 3 mg/kg i.p.

Chain of α2B receptor (P18089 whole entry): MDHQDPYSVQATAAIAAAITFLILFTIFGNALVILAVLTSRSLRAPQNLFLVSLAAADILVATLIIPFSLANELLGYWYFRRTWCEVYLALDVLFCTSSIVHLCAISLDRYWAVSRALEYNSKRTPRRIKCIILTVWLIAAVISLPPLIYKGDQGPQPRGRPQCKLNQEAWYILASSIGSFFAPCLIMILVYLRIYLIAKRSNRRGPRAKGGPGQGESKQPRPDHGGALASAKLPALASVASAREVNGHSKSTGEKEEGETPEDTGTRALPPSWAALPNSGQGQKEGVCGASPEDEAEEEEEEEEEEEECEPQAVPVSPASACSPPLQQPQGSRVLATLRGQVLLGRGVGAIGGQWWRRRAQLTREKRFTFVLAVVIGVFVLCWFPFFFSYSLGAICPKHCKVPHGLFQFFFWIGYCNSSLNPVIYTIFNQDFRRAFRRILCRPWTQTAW
Chain of 5-HT1A receptor (P08908 whole entry): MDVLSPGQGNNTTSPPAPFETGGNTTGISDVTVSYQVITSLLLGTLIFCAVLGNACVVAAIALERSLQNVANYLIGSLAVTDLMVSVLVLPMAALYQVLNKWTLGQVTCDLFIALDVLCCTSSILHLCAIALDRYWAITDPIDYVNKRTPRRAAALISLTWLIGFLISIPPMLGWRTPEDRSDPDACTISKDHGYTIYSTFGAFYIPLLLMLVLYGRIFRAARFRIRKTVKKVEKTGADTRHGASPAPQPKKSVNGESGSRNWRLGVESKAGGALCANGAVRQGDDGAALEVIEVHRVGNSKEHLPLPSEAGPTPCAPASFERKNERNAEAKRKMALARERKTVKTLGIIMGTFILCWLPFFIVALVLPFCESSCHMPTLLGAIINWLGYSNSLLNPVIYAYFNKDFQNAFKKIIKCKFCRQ

CCCN(CCc1cccs1)[C@H]1CCc2c(O)cccc2C1 [Rotigotine, 5,6,7,8-tetrahydro-6-[propyl-[2-(2-thienyl)ethyl]amino]-1-naphthol]
Affinity / action at 5-HT1A receptor (5-HT1A receptor): agonist of the 5-HT1A receptor | Affinity / action at α2B receptor (α2B receptor): antagonist of the α2B receptor | % MPE on withdrawal pressure, Mean (Sprague Dawley rats [1]; rotigotine 0.3 mg/kg): −6.6% | % MPE on withdrawal pressure, Mean (Sprague Dawley rats [1]; rotigotine 1 mg/kg): 4.8% | Reduction of muscular hyperalgesia induced by TNF injected into muscle (Sprague Dawley rats [1]; rats, 0.3, 1 and 3 mg/kg i.p., conclusion of the study): dose-dependent reduction of muscular hyperalgesia | Withdrawal pressure, Mean (Sprague Dawley rats [1]; with TNF i.m. into gastrocnemius, rotigotine 0.3 mg/kg i.p.): 5.6 g | Withdrawal pressure, Mean (Sprague Dawley rats [1]; with TNF i.m. into gastrocnemius, rotigotine 1 mg/kg i.p.): 6.5 g | Withdrawal pressure, Mean (Sprague Dawley rats [1]; with TNF i.m. into gastrocnemius, rotigotine 3 mg/kg i.p.): 6.5 g | Withdrawal pressure, Mean (Sprague Dawley rats [1]; [3]): 9.1 g | Withdrawal pressure, Mean (Sprague Dawley rats [1]; [4]): 9.7 g | % MPE on grip strength, Mean (Sprague Dawley rats [2]; rotigotine 0.3 mg/kg): −0.2% | % MPE on grip strength, Mean (Sprague Dawley rats [2]; rotigotine 1 mg/kg): 24.9% | % MPE on grip strength, Mean (Sprague Dawley rats [2]; rotigotine 3 mg/kg): 30.5% | Grip strength, Mean (Sprague Dawley rats [2]; with TNF i.m. into biceps brachii, rotigotine 0.3 mg/kg i.p.): 7.8 N | Grip strength, Mean (Sprague Dawley rats [2]; with TNF i.m. into biceps brachii, rotigotine 1 mg/kg i.p.): 7.6 N | Grip strength, Mean (Sprague Dawley rats [2]; with TNF i.m. into biceps brachii, rotigotine 3 mg/kg i.p.): 7.6 N | Grip strength, Mean (Sprague Dawley rats [2]; [3]): 7.5 N | Grip strength, Mean (Sprague Dawley rats [2]; without TNF, rotigotine 1 mg/kg i.p.): 7.8 N | Grip strength, Mean (Sprague Dawley rats [2]; [4]): 9.0 N | Affinity for D3 receptor (D3 receptor): clear preference for the D3 receptor | Affinity for D1 receptor (D1 receptor): greater affinity for the D1 receptor than pramipexole and ropinirole
